{
  "source": "patent US9649266B2",
  "about": "(priority 2014, dated 2017)",
  "key": {"[1]": {"test_system": "oily skin", "conditions": "1% solution on face twice a day, after a month"}, "[2]": {"test_system": "enlarged skin pores", "conditions": "0.1% gel on face twice a day, after a month"}, "[3]": {"test_system": "sebum production", "conditions": "for reduction in sebum production (as assessed by the Sebotape): 2% memantine lotion twice daily on back skin, vs pre-treatment or control region; for health of the skin in treatment region: 2% memantine lotion twice daily"}, "[4]": {"test_system": "acne", "conditions": "0.5% cream on face twice a day, after three months"}},
  "note": "Where two headings read alike, the source gives them in different places.",
  "data": [
    {"smiles": "OC(CCN1CCCCC1)(c1ccccc1)C1CC2C=CC1C2", "note": "(stereo not shown) [biperiden]", "values": [
      {"measurement": "appearance of skin oiliness", "setting": "[1]", "result": "much less oily"},
      {"measurement": "visible unwanted side-effects regarding skin", "setting": "[1]", "result": "no other visible unwanted side-effects"}
    ]},
    {"smiles": "CNC1(C)C2CCC(C2)C1(C)C", "note": "(stereo not shown) [mecamylamine]", "values": [
      {"measurement": "appearance of skin pores", "setting": "[2]", "result": "smaller in diameter"},
      {"measurement": "visible unwanted side-effects regarding skin", "setting": "[2]", "result": "no other visible unwanted side-effects"}
    ]},
    {"smiles": "CC12CC3CC(C)(C1)CC(N)(C3)C2", "note": "[memantine]", "values": [
      {"measurement": "reduction in sebum production (as assessed by the Sebotape)", "setting": "[3]; after five days", "result": "> 50", "unit": "%"},
      {"measurement": "reduction in sebum production (as assessed by the Sebotape)", "setting": "[3]; after six days", "result": "> 50", "unit": "%"},
      {"measurement": "health of the skin in treatment region", "setting": "[3]; after five days", "result": "healthy skin"},
      {"measurement": "health of the skin in treatment region", "setting": "[3]; after six days", "result": "healthy skin"},
      {"measurement": "appearance of acne", "setting": "[4]", "result": "less visible"},
      {"measurement": "visible unwanted side-effects regarding skin", "setting": "[4]", "result": "no other visible unwanted side-effects"}
    ]}
  ]
}
